Data taken from ChEMBL document CHEMBL1158636, “Discovery of a novel sulfonamide-pyrazolopiperidine series as potent and efficacious gamma-secretase inhibitors (Part II)” (Bioorg Med Chem Lett, 2010).

What was measured:
Gamma-secretase = test: Inhibition of gamma-secretase-mediated notch cleavage in human SNC cells by ELISA; type: cell-based
Mus musculus = test: Neuroprotective activity in wild type FVB mouse brain assessed as reduction of amyloid beta 40 level at 1 mg/kg, po after 3 hrs; type: functional; set-up: scale not given: the % may be the effect or the level left
Liver microsomes [1] = test: (§1) Oxidative metabolic stability in human liver microsomes assessed as compound remaining at 2 uM after 30 mins in presence of 1 mM UDPGA; type: ADME, Microsome; conditions: microsomes, 0.5 h, 2 µM
[2] = Inhibition of gamma-secretase-mediated notch cleavage after 2 hrs by ELISA
[3] = Inhibition of gamma-secretase-mediated APP cleavage assessed as amyloid beta40 level after 2 hrs by ELISA
Liver microsomes [4] = test: (§2) Oxidative metabolic stability in human liver microsomes assessed as compound remaining at 1 uM after 30 mins in presence of 1 mM NADPH; type: ADME, Microsome; conditions: microsomes, 0.5 h, 1 µM
[5] = as §1; type: ADME, Microsome; conditions: liver microsomes, read-out: Stability
[6] = molecular target: Gamma-secretase (Homo sapiens) (UniProt Q96BI3+Q9NZ42+Q8WW43+P49768+Q92542+P49810); test: Inhibition of gamma-secretase-mediated APP cleavage in human SNC cells by ELISA; type: cell-based
[7] = as §2; type: ADME, Microsome; conditions: liver microsomes, read-out: Stability

IC50 (Gamma-secretase) [nM]	Stability (Liver microsomes [1]) [%]	IC50 [2] [nM]	IC50 [3] [nM]	Stability (Liver microsomes [4]) [%]	remaining at 0.5 h, 2 µM [5] [%]	ED50 [6] [nM]	remaining at 0.5 h, 1 µM [7] [%]	Compound	Activity (Mus musculus) [%]
250	94	15	1.4					O=C1c2[nH]ncc2C(C2CC2)N(S(=O)(=O)c2ccc(C(F)(F)F)nc2)C12CC2 (stereo in doubt; 16f) [4'-CYCLO PROPYL-5'-(6-(TRIFLUORO METHYL)PYRIDIN-3-YL SULFONYL)-4',5'-DIHYDROSPIRO[CYCLOPROPANE-1,6'-PYRAZOLO[4,3-C]PYRIDIN]-7'(1'H)-ONE (ENANTIOMERIC MIX)]	27
> 40000	88		1070	83				O=C1c2[nH]ncc2C(C2CC2)N(S(=O)(=O)c2ccc(C(F)(F)F)nc2)C12CC2 (stereo in doubt; 16e) [4'-CYCLO PROPYL-5'-(6-(TRIFLUORO METHYL)PYRIDIN-3-YL SULFONYL)-4',5'-DIHYDROSPIRO[CYCLOPROPANE-1,6'-PYRAZOLO[4,3-C]PYRIDIN]-7'(1'H)-ONE (ENANTIOMERIC MIX)]	
50		2	0.2	61	89			O=S(=O)(c1ccc(C(F)(F)F)nc1)N1C(C2CC2)c2cn[nH]c2C(F)(F)C12CC2 (racemic) [4'-CYCLOPROPYL-7',7'-DIFLUORO-5'-(6-(TRIFLUOROMETHYL)PYRIDIN-3-YLSULFONYL)-1',4',5',7'-TETRAHYDRO SPIRO[CYCLOPROPANE-1,6'-PYRAZOLO[4,3-C]PYRIDINE] (ENANTIOMERIC MIX)]	
9280	100	221	56	72				O=S(=O)(c1ccc(C(F)(F)F)nc1)N1C(C2CC2)c2cn[nH]c2C(F)(F)C12CC2 (stereo in doubt; 17c) [4'-CYCLOPROPYL-7',7'-DIFLUORO-5'-(6-(TRIFLUOROMETHYL)PYRIDIN-3-YLSULFONYL)-1',4',5',7'-TETRAHYDRO SPIRO[CYCLOPROPANE-1,6'-PYRAZOLO[4,3-C]PYRIDINE] (ENANTIOMERIC MIX)]	
1640		107	4.8	12				CC(C)(C)C1C(=O)c2[nH]ncc2C(C2CC2)N1S(=O)(=O)c1ccc(C(F)(F)F)nc1 (stereo in doubt; 3u) [6-TERT-BUTYL-4-CYCLOPROPYL-5-(6-(TRIFLUOROMETHYL)PYRIDIN-3-YLSULFONYL)-5,6-DIHYDRO-1H-PYRAZOLO[4,3-C]PYRIDIN-7(4H)-ONE (STRUCTURAL MIX)]	
138		23	0.6		75	2	80	O=S(=O)(c1ccc(C(F)(F)F)nc1)N1[C@@H](C2CC2)c2cn[nH]c2C(F)(F)[C@H]1C1CC1 (stereo in doubt)	20
> 40000		8280	897	80				O=C1c2[nH]ncc2C(C2CC2)N(S(=O)(=O)c2ccc(C(F)(F)F)cn2)C12CC2 (stereo in doubt; 16h) [4'-CYCLOPROPYL-5'-(5-(TRIFLUORO METHYL)PYRIDIN-2-YL SULFONYL)-4',5'-DIHYDROSPIRO[CYCLOPROPANE-1,6'-PYRAZOLO[4,3-C]PYRIDIN]-7'(1'H)-ONE (ENANTIOMERIC MIX)]	
304		47	0.8		67	3	71	O=S(=O)(c1ccc(C(F)(F)F)nc1)N1[C@@H](C2CC2)C(F)(F)c2[nH]ncc2[C@H]1C1CC1 (stereo in doubt)	
2790		21	0.4		76	21	67	O=C1c2[nH]ncc2C(C2CC2)N(S(=O)(=O)c2ccc(C(F)(F)F)cc2)C1C1CC1 (racemic)	
2360		36	0.8		83	21	57	CC[C@@H]1c2cn[nH]c2C(=O)[C@H](CC)N1S(=O)(=O)c1ccc(C(F)(F)F)nc1 (relative stereo)	
25	85	1		85				O=S(=O)(c1ccc(C(F)(F)F)nc1)N1C(C2CC2)c2cn[nH]c2C(F)(F)C12CC2 (stereo in doubt; 17b) [4'-CYCLOPROPYL-7',7'-DIFLUORO-5'-(6-(TRIFLUOROMETHYL)PYRIDIN-3-YLSULFONYL)-1',4',5',7'-TETRAHYDRO SPIRO[CYCLOPROPANE-1,6'-PYRAZOLO[4,3-C]PYRIDINE] (ENANTIOMERIC MIX)]	
288		5	0.1		65	5	10	CC[C@@H]1c2cn[nH]c2C(=O)[C@H](CC)N1S(=O)(=O)c1ccc(Cl)cc1 (stereo in doubt)	
> 40000		193	5.6		42	6000	5	O=C1CN(S(=O)(=O)c2ccc(C(F)(F)F)nc2)C(C2CC2)c2cn[nH]c21 (racemic)	
2290	96	223	9.6	82				O=C1c2[nH]ncc2C(C2CC2)N(S(=O)(=O)c2ccc(C(F)(F)F)cn2)C12CC2 (stereo in doubt; 16i) [4'-CYCLOPROPYL-5'-(5-(TRIFLUORO METHYL)PYRIDIN-2-YL SULFONYL)-4',5'-DIHYDROSPIRO[CYCLOPROPANE-1,6'-PYRAZOLO[4,3-C]PYRIDIN]-7'(1'H)-ONE (ENANTIOMERIC MIX)]	
187		19	1		64	1	57	O=C1c2[nH]ncc2C(C2CC2)N(S(=O)(=O)c2ccc(C(F)(F)F)nc2)C1C1CCOCC1 (racemic)	
> 40000		89	6.8		77	5110	63	CC1C(=O)c2[nH]ncc2C(C)N1S(=O)(=O)c1ccc(C(F)(F)F)cc1 (stereo not given)	
